Measurements: US12006330B2, “Substituted macrocyclic compounds and related methods of treatment” (Alkermes, Inc., priority 2020, dated 2024)

Assays:
[1] = tested on: Sprague-Dawley rats; test: Assessment of wake promotion in Sprague-Dawley rats (EEG/EMG); assay type: in vivo, rat; details: male Sprague-Dawley rats; PO; 3 mpk; dosed at ZT5; 6-hour post-dose period
Method: Wake promotion was assessed using electroencephalography (EEG) and electromyography (EMG) in adult male Sprague-Dawley rats. All rats (Charles River Laboratories, Raleigh, NC, USA) were intraperitoneally implanted with telemetry devices (F50-EEE, Data Sciences International Inc., MN, USA) under isoflurane anesthesia. For EEG, stainless steel screws were implanted over frontal cortex and parietal cortex, and reference screws were placed over cerebellum. Additionally, an electrode was placed in neck muscle for EMG. Rats were given carprofen post-surgery and underwent a 7 to 10-day recovery period. Rats habituated to the experimental room for 7 days and were maintained on a 12-hour light-dark cycle.
EEG and EMG data were recorded using the DSI telemetry system and Ponemah software (Data Sciences International Inc., MN, USA). Sleep-wake stages were scored both manually and with Somnivore, a supervised machine learning software platform, in 10 second epochs. Records were visually inspected as needed post-processing.
All test compounds were dissolved in 5% DMSO and suspended in 95% saline with 0.5% methylcellulose and 0.5% tween. […] Unless otherwise indicated, all compounds were dosed orally. Recordings for each rat were initiated immediately after dosing and lasted for 6 hours post-dose.
Two key endpoints include wakefulness time and cortical activation time. Wakefulness time is derived from the sleep-wake stage analysis. Cortical activation time is based on the duration in which frontal gamma oscillatory activity (30-100 Hz), a key feature of wakefulness, was elevated relative to a pre-treatment baseline. Mean cortical activation time was computed relative to vehicle treatment for the 6-hour post-dose period.

[2] = Hepatocytes stability assay (human hepatocytes); assay type: in vitro ADME; details: both sexes, human, cryopreserved hepatocytes, cryopreserved human hepatocytes (pool of 50 mixed gender); 1 μM test compound; 1×10^6 cell/mL; 37 degrees C; read-out: CLint (μL/min/million cells)
How it was run: (§1)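 Compound at 1 μM (0.1% DMSO) was incubated with cryopreserved pooled human hepatocytes, 1×10^6 cells/mL in Krebs-Henseleit buffer, at 37 °C, sampled up to 240 min. Parent depletion by LC-MS/MS; half-life from first-order decay gave CLint, scaled to hepatic clearance by well-stirred model (fu assumed 1) and extraction ratio.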

[3] = tested on: human hepatocytes; test: Hepatocytes stability assay (human hepatocytes); assay type: in vitro ADME; details: for Extraction Ratio (ER): human hepatocytes, scaled hepatic clearance divided by liver blood flow (well-stirred model, fu assumed unity); for CLint (μL/min/million cells): cryopreserved human hepatocytes (pool of 50 mixed gender), 1 μM test compound, 1×10^6 cell/mL, 37 degrees C
How it was run: as §1

[4] = tested on: MDR1; test: MDCK-MDR1 permeability assay; assay type: in vitro ADME; details: dog, MDCK-MDR1, MDCK-MDR1 cells; for efflux ratio at 2 h, 3 μM: Papp B→A divided by Papp A→B, read-out: Efflux ratio (ER); for Papp A→B at 2 h, 3 μM: test compound 3 μM, 2 hours at 37 degrees C, apical to basolateral
How it was run: (§2)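 Test compound at 3 μM in HBSS was dosed apical-to-basolateral (with 100 μM Lucifer Yellow) and basolateral-to-apical across MDCK-MDR1 monolayers at 37 °C for 2 h. Receiver and donor samples were quantified by LC-MS/MS. Papp = dQ/dt×1/A×C0, efflux ratio = Papp(B→A)/Papp(A→B), and percent recovery was also derived.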

[5] = tested on: MDCK-MDR1 cells; test: MDCK-MDR1 permeability assay; assay type: in vitro ADME; details: MDCK-MDR1 cells; for Efflux ratio (ER): Papp B→A divided by Papp A→B, 3 μM, 2 hours; for Papp A → B (10^−6 cm/s): test compound 3 μM, 2 hours at 37 degrees C, apical to basolateral
How it was run: as §2

[6] = target: T1, human orexin-2 receptor (OX2R) (Homo sapiens, UniProt O43614); test: Human OX2R IP1 assay; assay type: cell-based; details: T-Rex CHO cells stably overexpressing human OX2R; IP1 accumulation; 1 hr at 37 degrees C; mean EC50
T1 construct: expressed in transfected cells
T1 sequence (O43614 1-444): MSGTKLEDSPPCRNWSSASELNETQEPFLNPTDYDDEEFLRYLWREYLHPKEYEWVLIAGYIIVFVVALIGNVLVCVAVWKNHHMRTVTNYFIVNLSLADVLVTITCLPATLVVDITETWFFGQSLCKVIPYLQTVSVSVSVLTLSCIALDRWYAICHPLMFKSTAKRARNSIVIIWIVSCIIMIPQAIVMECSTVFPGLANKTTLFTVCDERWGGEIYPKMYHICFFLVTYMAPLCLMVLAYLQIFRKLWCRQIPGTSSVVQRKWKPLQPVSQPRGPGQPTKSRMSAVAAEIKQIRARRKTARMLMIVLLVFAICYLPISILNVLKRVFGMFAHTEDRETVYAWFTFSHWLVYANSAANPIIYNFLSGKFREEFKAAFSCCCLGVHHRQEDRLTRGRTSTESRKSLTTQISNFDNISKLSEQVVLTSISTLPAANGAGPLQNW
How it was run: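 T-Rex CHO cells stably expressing human OX2R, doxycycline-induced (1 μg/mL) overnight, treated with compounds 1 h at 37 °C in pH 7.4 buffer with 50 mM LiCl. IP1 accumulation read by HTRF competitive immunoassay after 1 h at room temperature; agonist EC50 reported as mean ± S.E.M.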

Structure (SMILES) | hepatocyte CLint at 1 μM [2] | Extraction Ratio (ER) [3] | efflux ratio at 2 h, 3 μM [4] | Papp A→B at 2 h, 3 μM [4] | CLint (μL/min/million cells) [3] | Efflux ratio (ER) [5] | Papp A → B (10^−6 cm/s) [5] | EC50 [6] | Mean cortical activation time (% vehicle treatment) [1]
CC(C)S(=O)(=O)N[C@H]1CCCN2C(=O)COc3ccccc3C3CCC(CC3)OC[C@@H]12 (stereo in doubt) [Compound 3] | 21 µL/min/1e6 cells | 0.76 | 10 | 1.8 ×10⁻⁶ cm/s |  |  |  |  | 204.79 % vehicle treatment
Cc1ccnc2c1C1CCC(CC1)OC[C@H]1[C@@H](NS(=O)(=O)C(C)C)CCCN1C(=O)CO2 (stereo in doubt) [Compound 10] | 9.4 µL/min/1e6 cells | 0.58 | > 100 | 0.38 ×10⁻⁶ cm/s |  |  |  |  | 82.61 % vehicle treatment
O=C1COc2ccccc2C2CCC(CC2)OC[C@H]2[C@@H](NS(=O)(=O)C(F)(F)F)CCCN12 (stereo in doubt) [Compound 11] | 4.2 µL/min/1e6 cells | 0.38 | 52 | 1.6 ×10⁻⁶ cm/s |  |  |  |  | 411.43 % vehicle treatment
Cc1ccnc2c1C1CCC(CC1)OC[C@H]1[C@@H](NS(C)(=O)=O)CCCN1C(=O)CO2 (stereo in doubt) [Compound 12] | 9.7 µL/min/1e6 cells | 0.59 | 74 | 0.49 ×10⁻⁶ cm/s |  |  |  |  | 108.70 % vehicle treatment
CC(C)S(=O)(=O)N[C@H]1CCCN2C(=O)COc3ncccc3C3CCC(CC3)OC[C@@H]12 (stereo in doubt) [Compound 15] | 15 µL/min/1e6 cells | 0.69 | 100 | 0.34 ×10⁻⁶ cm/s |  |  |  |  | 107.59 % vehicle treatment
Cc1ccc2c(c1)C1CCC(CC1)OC[C@H]1[C@@H](NS(C)(=O)=O)CCCN1C(=O)CO2 (stereo in doubt) [Compound 17] | 7.5 µL/min/1e6 cells | 0.53 | 40 | 0.84 ×10⁻⁶ cm/s |  |  |  |  | 212.31 % vehicle treatment
O=C1COc2nccnc2[C@H]2CC[C@H](CC2)OCC2[C@@H](NS(=O)(=O)C3CC3)CCCN12 (stereo in doubt) [Compound 65] | < 1.9 µL/min/1e6 cells | <0.22 | > 100 | 0.1 ×10⁻⁶ cm/s |  |  |  |  | 121.28 % vehicle treatment
CC(C)S(=O)(=O)N[C@H]1CCCN2C(=O)COc3nccnc3[C@H]3CC[C@H](CC3)OCC12 (stereo in doubt) [Compound 66] | < 1.9 µL/min/1e6 cells | <0.22 | 88 | 0.22 ×10⁻⁶ cm/s |  |  |  |  | 141.30 % vehicle treatment
Cc1ncnc2c1[C@H]1CC[C@H](CC1)OCC1[C@@H](NS(=O)(=O)C3CC3)CCCN1C(=O)CO2 (stereo in doubt) [Compound 68] | 3.9 µL/min/1e6 cells | 0.37 | 72 | 0.24 ×10⁻⁶ cm/s |  |  |  |  | 157.14 % vehicle treatment

Now from value to compound, other results behind:

hepatocyte CLint at 1 μM [2] | Extraction Ratio (ER) [3] | efflux ratio at 2 h, 3 μM [4] | Papp A→B at 2 h, 3 μM [4] | CLint (μL/min/million cells) [3] | Efflux ratio (ER) [5] | Papp A → B (10^−6 cm/s) [5] | EC50 [6] | Structure (SMILES) | Mean cortical activation time (% vehicle treatment) [1]
 | <0.22 |  |  | <1.9 μL/min/million cells | 49 | <0.091 10^−6 cm/s | < 10 nM | Cc1ncnc2c1[C@H]1CC[C@H](CC1)OC[C@H]1[C@@H](NS(C)(=O)=O)CCCN1C(=O)CO2 (stereo in doubt) [Compound 72] | 
 | 0.76 |  |  | 21 μL/min/million cells | >100 | 0.23 10^−6 cm/s | < 10 nM | O=C1COc2ccccc2[C@H]2CC[C@H](CC2)OCC2[C@@H](NS(=O)(=O)C3CCOC3)CCCN12 (stereo in doubt) [Compound 73] | 
24 µL/min/1e6 cells | 0.78 | 18 | 3.4 ×10⁻⁶ cm/s |  |  |  |  | Cc1ccnc2c1[C@H]1CC[C@H](CC1)OCC1[C@@H](NS(=O)(=O)C3CC3)CCN1C(=O)CO2 (stereo in doubt) [Compound 92] | 97.94 % vehicle treatment
20 µL/min/1e6 cells | 0.75 | 11 | 4.7 ×10⁻⁶ cm/s |  |  |  |  | Cc1ccnc2c1[C@H]1CC[C@H](CC1)OCC1[C@@H](NS(=O)(=O)C(C)C)CCN1C(=O)CO2 (stereo in doubt) [Compound 93] | 138.14 % vehicle treatment
2.3 µL/min/1e6 cells | 0.25 | 9.2 | 0.53 ×10⁻⁶ cm/s |  |  |  |  | CS(=O)(=O)N[C@H]1CCCN2C(=O)COc3ccc(O)cc3[C@H]3CC[C@H](CC3)OCC12 (stereo in doubt) [Compound 96] | 74.48 % vehicle treatment
5.2 µL/min/1e6 cells | 0.43 | 44 | 0.42 ×10⁻⁶ cm/s |  |  |  |  | O=C1COc2ncncc2[C@H]2CC[C@H](CC2)OCC2[C@@H](NS(=O)(=O)C3CC3)CCCN12 (stereo in doubt) [Compound 97] | 79.25 % vehicle treatment
19 µL/min/1e6 cells | 0.74 | 14 | 3.9 ×10⁻⁶ cm/s |  |  |  |  | CC(C)S(=O)(=O)N[C@H]1CCN2C(=O)COc3ncccc3[C@H]3CC[C@H](CC3)OCC12 (stereo in doubt) [Compound 101] | 109.66 % vehicle treatment
